US12616700B2, “Therapeutic regimen” (Novartis AG, priority 2017, dated 2026)
Read-outs that look alike come from different tables or passages of the source.

Assays:
[1] = Dog study of lumefantrine-SDF and KAF156 alone and co-dosed (Example 6); format: in vivo; conditions: for Cmax / AUC(0-inf) / AUC(0-t) / half-life / Tmax: po, 100 mg; for AUC(0-inf): read-out: AUCinf, Mean; for AUC(0-t): read-out: AUClast, Mean; for half-life: read-out: T½, Mean (converted)
Procedure: The study design is described in the table below. To stimulate gastric secretion, each animal (dog) received a single 6-μg/kg intramuscular injection of pentagastrin approximatively 60 minutes prior to test article administration. Washout between each treatment was approximatively 7-8 days. [table]

P. falciparum = conditions: in vitro; cited from earlier work
P. vivax = conditions: in vitro; cited from earlier work
Plasmodium = conditions: causal prophylactic protection in animal infection models; cited from earlier work
liver hypnozoites = conditions: cited from earlier work
[2] = test system: drug-sensitive and a broad panel of drug resistant malaria strains; conditions: cited from earlier work
[3] = test system: P. vivax or P. falciparum; conditions: cited from earlier work
[4] = format: in vitro ADME
Procedure: Lumefantrine concentration was determined by a validated Liquid chromatography-Mass spectrometry (LC-MS/MS) method with a Lower Limit of Quantification (LLOQ) of 50 ng/mL. Briefly, the bioanalytical method consisted of protein precipitation followed by solid phase extraction of human plasma samples and analysis of diluted samples by LC-MS/MS in Multiple Reaction Monitoring (MRM) positive mode using Electrospray Ionization (ESI) as the ionization technique. The lower and upper limits of quantification for linear range were 50.0 ng/mL and 20000 ng/mL respectively using […] of human plasma. Lumefantrine in human plasma is stable for 44 hours at room temperature; 9 months at ≤−70° C.; 3 freeze/thaw cycles at ≤−70° C. The extract is stable for 100 hours in an autosampler at 8° C. The stability data could cover the period from sampling to analysis of all study samples. For eight points calibration concentrations (50, 100, 200, 500, 2000, 5000, 16000 and 20000 ng/mL) bias was within the range of 15.0% at all concentrations except for LLOQ (50 ng/mL) for which it was within the range of 20.0%. For quality control samples (150 ng/mL, 2500 ng/mL and 15000 ng/mL) bias was within the range of 15.0% for at least ⅔ of the individual values.

[5] = cited from earlier work
[6] = Dog 3 (emesis after dosing in Phase 5)
[7] = dog, in vivo, Phase 2 (Combo), dog
[8] = dog, in vivo, Phase 5 (Mono), dog
[9] = P. falciparum malaria, multiple-dose cohort

## CC1(C)c2nc(-c3ccc(F)cc3)c(Nc3ccc(F)cc3)n2CCN1C(=O)CN [KAF156, 2-amino-1-(2-(4-fluorophenyl)-3-(4-fluorophenylamino)-8,8-dimethyl-5,6-dihydroimidazo[1,2-a]pyrazin-7(8H)-yl)ethanone]
[1]; Dog 1
  AUCinf Ratio (Phase 2:Phase 5): 2.6
  AUClast Ratio (Phase 2:Phase 5): 2.7
  Cmax Ratio (Phase 2:Phase 5): 2.6
[1]; Dog 2
  AUCinf Ratio (Phase 2:Phase 5): 2.8
  AUClast Ratio (Phase 2:Phase 5): 2.9
  Cmax Ratio (Phase 2:Phase 5): 2.5
[1]; [6]
  AUCinf Ratio (Phase 2:Phase 5): 5.3
  AUClast Ratio (Phase 2:Phase 5): 5.2
  Cmax Ratio (Phase 2:Phase 5): 3.3
[1]; Mean
  AUCinf Ratio (Phase 2:Phase 5): 3.6
  AUClast Ratio (Phase 2:Phase 5): 3.6
  Cmax Ratio (Phase 2:Phase 5): 2.8
[1]; dog, in vivo, Phase 2 (Combo)
  Cmax: 1200 ng/mL
[1]; [7]
  AUC(0-inf): 45400 ng·h/mL
  AUC(0-t): 36700 ng·h/mL
[1]; dog, in vivo, Phase 2 (Combo), with Lumefantrine-SDF sachet, dog
  half-life: 1860 min
[1]; dog, in vivo, Phase 2 (Combo), Tmax 1, 1, 8 hr in 3 dogs
  Tmax: 3.3 h
[1]; dog, in vivo, Phase 5 (Mono)
  Cmax: 451 ng/mL
  Tmax: 1 h
[1]; [8]
  AUC(0-inf): 14400 ng·h/mL
  AUC(0-t): 11600 ng·h/mL
  half-life: 1990 min
P. falciparum
  EC50, erythrocytic replication life cycle stages (blood stages): low nanomolar
P. vivax
  EC50, erythrocytic replication life cycle stages (blood stages): low nanomolar
Plasmodium
  activity in liver stage models of Plasmodium infection: has shown activity
Liver hypnozoites
  activity against liver hypnozoites: has not demonstrated activity
[2]
  potency against drug-sensitive versus drug resistant malaria strains: equally potent
[3]; 400 mg/day for 3 days or single 800 mg
  serious adverse events: No serious adverse event was reported
[3]; [9]
  patients who reported nausea: 1 patient
  patients who vomited: 1 patient
[3]; malaria patients
  activity against vivax and falciparum malaria, including artemisinin-resistant parasites: has activity
  half-life: about 50 hours
[3]; single 800-mg dose, besides one withdrawn for repeated vomiting
  patients who vomited: Five
[3]; single 800-mg dose
  patients who reported nausea: Four

## CCCCN(CCCC)CC(O)c1cc(Cl)cc2c1-c1ccc(Cl)cc1/C2=C/c1ccc(Cl)cc1 (stereo not drawn) [Lumefantrine, lumefantrine]
[4]; human, 100 hours
  stability of the extract: 100 h
[4]; plasma, 44 hours
  stability in human plasma: 44 h
[1]; dog, in vivo
  increase of lumefantrine exposure when administered together with KAF156: around 1.5 fold
[5]; in vivo
  increase of bioavailability by food: up to 16 fold

## CO[C@H]1O[C@@H]2O[C@@]3(C)CC[C@H]4[C@H](C)CC[C@@H]([C@H]1C)[C@@]24OO3 [artemether]
[5]; Coartem administered with high fat food
  increase of bioavailability by food: up to 3 fold
